Here are results for one compound from patent publication US4918067A, “Heterocyclic substituted penicillin antibiotics” (Beecham Group p.l.c., priority 1986, dated 1990).

Common to all, as to assay type: cell-based
One assay deals with S. epidermidis PHLN20. As to the kind of experiment: in vitro MIC against S. epidermidis PHLN20. The following applies: Staphylococcus epidermidis. The method, then: (§1) The compound of the Example was tested in vitro against a number of microorganisms.
Another assay deals with S. aureus MB9. As to the kind of experiment: in vitro MIC against S. aureus MB9. The settings on record: Staphylococcus aureus. How it is done: as §1
The next assay relates to H. influenzae Ql. The experiment in a line: in vitro MIC against H. influenzae Ql. The settings on record: Haemophilus influenzae. The method, then: as §1
The subject of another assay is H. influenzae NEMCl. As to the kind of experiment: in vitro MIC against H. influenzae NEMCl. The settings on record: Haemophilus influenzae. How it is done: as §1
For the next assay, the system named is S. pyogenes CN10. As to the kind of experiment: in vitro MIC against S. pyogenes CN10. The settings on record: Streptococcus pyogenes. The method, then: as §1
For the next assay, the system named is B. catarrhalis Ravasio. As to the kind of experiment: in vitro MIC against B. catarrhalis Ravasio. The following applies: Moraxella catarrhalis. The method, then:
as §1

The next assay has as its system S. pneumoniae 1761. The experiment in a line: in vitro MIC against S. pneumoniae 1761. The following applies: Streptococcus pneumoniae. The method, then: as §1
The test system of the next assay is E. Coli ESS. As to the kind of experiment: in vitro MIC against E. Coli ESS. The settings on record: Escherichia coli. How it is done:
as §1

The next assay deals with S. aureus Oxford. The experiment in a line: in vitro MIC against S. aureus Oxford. The settings on record: Staphylococcus aureus. How it is done: as §1
The subject of another assay is S. agalacticae 2798. The experiment in a line: in vitro MIC against S. agalacticae 2798. The method, then:
as §1

The next assay relates to S. aureus Russell. The experiment in a line: in vitro MIC against S. aureus Russell. The following applies: Staphylococcus aureus. The method, then:
as §1

A value given as a limit tells only on which side of the number the result lay.

As to `CC1(C)S[C@@H]2[C@H](NC(=O)/C(=N\OC3CCCCC3)c3cccc(N)n3)C(=O)N2[C@H]1C(=O)O` [Example 1, Sodium 6-β-[2-(2-aminopyridin-6-yl) 2-(Z)-cyclohexyl-oxiyminoacetamido]penicillinate], the MIC was 0.5 µg/mL against S. epidermidis PHLN20; 2 µg/mL against S. aureus MB9; 1 µg/mL in the assay with H. influenzae Ql; 1 µg/mL against H. influenzae NEMCl; below 0.03 µg/mL against S. pyogenes CN10; 0.5 µg/mL with B. catarrhalis Ravasio. Also, the MIC is below 0.03 µg/mL against S. pneumoniae 1761; 0.12 µg/mL in the assay with E. Coli ESS; 0.5 µg/mL against S. aureus Oxford; 0.25 µg/mL with S. agalacticae 2798; 0.5 µg/mL against S. aureus Russell.
